Usually IC50 stands for the concentration at which inhibition is half-maximal.

From US20100197688A1, “EPHA4 RTK INHIBITORS FOR TREATMENT OF NEUROLOGICAL AND NEURODEGENERATIVE DISORDERS AND CANCER” (priority 2008, published 2010) come the findings set out here.

Data set [1] deals with CHO-K1 cells. The data set can be described thus: Cell viability (Cell Glo) in EphA4 cell assay. It is filed as cell-based, Chinese Hamster. How it is done: Transfection and Luciferase Assay: CHO-K1 cells were plated in T-175 cell culture bottle in DMEM medium supplemented with 10% fetal bovine serum, 1 mM sodium pyruvate, 2 mM L-glutamine and 1.5 g/L sodium bicarbonate. When cell reached 70-80% confluence, transfections were performed in T-175 culture flasks, using Lipofectamine 2000™ transfection reagent (Invitrogen) according to the manufacturer's directions. For the luciferase assay CHO-K1 cells were co-transfected the next day with […] of pGAS-Luc, 70 mg of EphA4, and 5 mg of empty vector pRL-CMV, which encoded the Renilla luciferase, and was included in the transfection mix for normalization. […] Cells were lysed the next day using the Reporter Lysis Buffer (Promega), and the luciferase activity was measured using the Dual Luciferase Assay (Promega) following the manufacturer's directions. The Firefly and Renilla luminescences are read consecutively on a Top-Count (Perkin-Elmer). Results are expressed as a ratio of the two luminsescence: Firefly Luciferase/Renilla Luciferase. Cell viability was assessed on parallel plates using the Cell Glo Assay (Promega) following the manufacturer's directions. Results are expressed as percent of cell death in comparison with vehicle-treated wells.

Data set [2] relates to C2C12 cells. The data set can be described thus: Proliferation assay (cell confluence), C2C12 cells. Type of data set: cell-based, mouse. The following applies: at 5 μM. How it is done:
C2C12 were plated at 15,000 cells per well and then differentiated into myotubes with DMEM supplemented with 2% horse serum for 3 days in 24 well ImageLock™ plate (Essen Instruments, Mich., USA). Primary Rat cortical astrocytes were plated at 3.105 cells/ml onto 24 well ImageLock™ plate.
Cells were placed into the IncuCyte™ at 37° C. and 95% CO2/5% O2, for two to three days. During this time, the cells within each well were repeatedly imaged at fixed time intervals (every three hours). The IncuCyte™ system automatically monitored the proliferation using the percentage of confluence. Percent of confluence can be graphed over time to evaluate the characteristics of proliferation in the presence of pharmacological agents.
[…] The percentage of reduction of cell confluence was calculated from the AUCs in comparison with the AUCs of the control wells (1% DMSO).

Data set [3] deals with T1, EphA4 kinase (Homo sapiens, UniProt P54764).
T1 construct: His6-TEV-EphA4 (36 KD) (aa. 615-911); His6 (N); TEV cleavage site (N); made in house; host or cells: Sf9 (baculovirus)
T1 sequence (P54764 615-911): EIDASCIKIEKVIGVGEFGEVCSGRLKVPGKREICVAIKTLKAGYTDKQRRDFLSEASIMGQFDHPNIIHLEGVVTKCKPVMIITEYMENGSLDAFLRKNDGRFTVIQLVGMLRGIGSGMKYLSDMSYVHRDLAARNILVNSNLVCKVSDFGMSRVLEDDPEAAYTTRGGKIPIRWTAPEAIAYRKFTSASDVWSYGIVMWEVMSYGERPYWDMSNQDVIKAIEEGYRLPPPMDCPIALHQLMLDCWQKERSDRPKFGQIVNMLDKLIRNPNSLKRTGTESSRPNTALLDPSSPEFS
In words: EphA4 kinase enzymatic assay (TR-FRET). It is filed as biochemical. Particulars: for IC50: 25 μM ATP, recombinant His6-TEV-EphA4 (aa. 615-911); for EphA4 Kinase max inhibition in %: maximum percent inhibition (value in parentheses). How it is done: Recombinant EphA4 kinase His6-TEV-EphA4 (36 KD) (aa. 615-911) was expressed in Sf9 using baculovirus expression system. Hi-tagged protein was purified by high performance liquid chromatography in two step, using a His Trap HP column and a heparin column. The potency of compounds to inhibit EphA4 kinase phosphorylation was measured by an enzymatic assay based on time resolved fluorescence energy transfer assay format (TR-FRET), using Eu-W1024 anti-pTyr antibody (Perkin Elmer, USA) as a donor and SureLight APC (Perkin Elmer, USA) as an acceptor.
Biotinylated Poly(Glu Tyr) peptide (50 nM) was incubated in 384-well with 25 μM ATP (Sigma) and 10 ng EphA4 kinase in NEBuffer (New England Biolabs) for 60 minutes at rt. The reaction was stopped by 15 mM of EDTA solution for 10 minutes at rt. The detection mixture containing 0.5 nM Eu-W1024 anti-pTyr antibody (Perkin Elmer, USA) and 50 nM SureLight APC (Perkin Elmer, USA) was added to the wells and the plate was incubated for 30 min at rt, while protected from light. Energy transfer signal was measured using a Victor 2V (excitation filter 340, emission filter 615 and 665, delay time 50 μs). Results were expressed as ratios of the absorbencies 665/615.
Compounds were titrated in duplicate at 11 points concentration starting at 100 μM with a 3 fold increment. Compounds were diluted in DMSO. […] Percentage inhibition for each compound was then calculated based on the value of the 100% inhibition. Concentration-response curves were represented and the concentrations for 50% inhibition (IC50) were calculated.

Turning to `Cc1ccc(NC(=O)c2cccc(C(F)(F)F)c2)cc1-c1ccc(-n2cccn2)cc1` [Example 120], the “Max Toxicity Cell Assay % of cell death” value in data set [1] (at 25 μM) came out at 8% at 25 μM. In addition, in data set [2], the “% Reduction Confluence C2C12 Cells” value is reported as 33.3% at 5 μM. Besides, in data set [3], the IC50 is 1.59 µM and the “EphA4 Kinase max inhibition in %” value turned out to be 70%.

As for `Cc1ccc(NC(=O)c2cccc(C(F)(F)F)c2)cc1-c1ccc(O)c(NC=O)c1` [Example 133], the “Max Toxicity Cell Assay % of cell death” value in data set [1] (at 50 μM) amounted to 15% at 50 μM. For the same compound, in data set [2], the “% Reduction Confluence C2C12 Cells” value was 17.5% at 5 μM. For the same compound, in data set [3], the IC50 was 4.8 µM and the “EphA4 Kinase max inhibition in %” value came out at 93%.
